Data: publication PMC9234961 (Journal of Medicinal Chemistry, 2022)
In brackets after ≈: the same amount, converted by molar mass. Several values for one entry are separate records, joined by “and”; a condition that tells them apart may be missing. Identical values can stand only once. Like-named read-outs stand apart in the source and are kept apart here.

Assays:
[1] = target: T1, human BCL6 BTB domain (Homo sapiens, UniProt P41182); experiment: biochemical
[2] = logD7.4 assay (Chrom log D method); format: physicochemical; conditions: pH 7.4, read-out: Measured logD7.4
Description: Calibration, validation and in-house compounds were prepared at 1mM in 10% DMSO / 90% Trizma solution (100mM Trizma in 75/25 methanol/water). 3 µL standard injections (with needle wash) of all calibration, validation and in-house samples were made onto a Phenomenex Luna C8 column (3µm, 100 x 4.6 mm, 100A, Phenomenex, Torrence, USA). Chromatographic separation at 30°C was carried out using […]
2 mL/min. The gradient was held at 0:100 water:organic for 0.8 minutes, then returned to the starting conditions of 95:5 water:organic for 0.2 minutes. The column was re-equilibrated for 5 minutes at the […]

[3] = Microsomal clearance assay (MLM); format: in vitro ADME; conditions: female, CD1, pH 7.4; mouse liver microsomes, 1 μM compound
Description: 6. Supplementary experimental: in vitro DMPK assays
6.1 Microsomal clearance assay
Microsomal clearance was determined in female CD1 mice, female Sprague–Dawley rats, and mixed gender human liver microsomes obtained from BioIVT (Peterborough, U.K.) following incubation of 1 μM compound at 37 °C in 0.5 mg/mL microsomal protein, 3 mmol/L MgCl2, 1 mmol/L NADPH, 2.5 mmol/L and 10 mmol/L phosphate buffer (pH 7.4) (all purchased from Sigma-Aldrich, Gillingham, U.K). Reactions were started by addition of the cofactors following 10 min preincubation of microsomes with test compound and were terminated at −1, 0, 5, 10, 15, and 30 min with three volumes of ice-cold methanol containing internal standard. Samples were centrifuged at 2800g for 30 min at 4 °C and the supernatants analyzed.
Control incubations were prepared as above with omission of cofactors. Compound measurements were […]
separation with a 3 min gradient of 0.1% formic acid in methanol on a Kinetex C18, 50 × 2.1 mm 2.6 μm UPLC column (Phenomenex, Macclesfield, UK). […]

[4] = target: endogenous BCL6 in OCI-Ly1 cells (Homo sapiens, UniProt P41182); experiment: cell-based; conditions: for degradation of BCL6 (in words): OCI-Ly1 MSD assay; for MSD degrader assay [OCI-Ly1] Dmax: mean maximal degradation of BCL6; for MSD degrader assay [OCI-LY1] pDC50 mean: mean of replicates
[5] = target: T1, human BCL6 BTB domain; conditions: for BCL6 TR-FRET pIC50 mean: mean of replicates
[6] = NMR solubility assay; format: physicochemical; conditions: kinetic solubility by NMR in HEPES buffer at pH 8, 4% DMSO; read-out: Aq. Sol.
Description: 4. Supplementary experimental: physicochemical assays
0.5 mM TCEP, 10% D2O) was pipetted into the same well and mixed by up-down pipetting 3 times to create […]
It was then separated by centrifugation (1000 rpm
The plate was then sealed and incubated at room temperature for 20 hours, […]
165 µL of the supernatant was transferred to a 3 mm NMR tube (Bruker, Part No. Z112272) using liquid handler SamplePro Tube SJ S (Bruker). The concentration of the solubilized compound in solubility sample is measured by quantitative 1H-NMR using a single external standard (200 µM caffeine (Sigma, C1778) in PBS (pH 7.4) with 1% DMSO-d6).
The detail of the NMR method is as following: NMR data was collected on a Bruker Avance Neo 600 spectrometer equipped with a 5 mm TCI-CryoProbe. The 1H spectrum was referenced to the internal deuterated solvent. The operating frequency for 1H was 600 MHz. All NMR data were acquired at the […]
1H-NMR spectrum was acquired using a Bruker standard 1D lc1pngppsf2 pulse sequence with 32 scans.
The sweep width was 6.2 ppm with O1P set to 8.8 ppm, and the FID contained 16k time-domain data points. Relaxation delay was set to 20 sec. Water signal was suppressed. […]

[7] = BCL6 TR-FRET IC50 individual replicates, single replicate values
[8] = reversed-phase HPLC on Phenomenex Luna C8 column
[9] = OCI-Ly1, read-out: MSD degrader assay [OCI-LY1] Dmax individual replicates, single replicate values
[10] = read-out: MSD degrader assay [OCI-LY1] DC50 individual replicates, single replicate values
[11] = read-out: MSD degrader assay [OCI-Ly1] DC50, geometric mean, OCI-Ly1 cells, 2 h incubation
[12] = read-out: BCL6 TR-FRET IC50, geometric mean, BCOR-AF633 peptide, 2 h incubation
[13] = OCI-Ly1, read-out: MSD degrader assay [OCI-Ly1] Dmax, mean maximal degradation of BCL6, OCI-Ly1 cells, 2 h
[14] = read-out: BCL6 TR-FRET IC50 individual replicates, single replicate values

| Compound | IC50 [1, 7] | chromatographic logD [2, 8] | microsomal CLint at 0.5 h, 1 µM [3] [µL/min/mg] | Dmax [4, 9] [%] | degradation of BCL6 (in words) [4] | MSD degrader assay [OCI-Ly1] Dmax ([4]; OCI-Ly1 cells, 2 h) [%] | MSD degrader assay [OCI-LY1] pDC50 mean [4] | DC50 [4, 10] | DC50 [4, 11] [nM] | MSD degrader assay [OCI-LY1] Dmax individual replicates ([4]; single replicate values) | BCL6 TR-FRET pIC50 mean [5] | IC50 [5, 12] [nM] | solubility kinetic at 20 h [6] [µM] | Dmax [4, 13] [%] | IC50 [5, 14] | IC50 ([1]; BCL6 TR-FRET pIC50 mean, mean of replicates) [nM] | chromatographic logD [2] |
| --- | --- | --- | --- | --- | --- | --- | --- | --- | --- | --- | --- | --- | --- | --- | --- | --- | --- |
| CC(=O)N[C@@H]1C[C@H](C)CN(c2ncc(Cl)c(Nc3ccc4c(c3)c3c(c(=O)n4C)OCC(F)(F)[C@H](C4CC4)N3)n2)C1 [10a, N-((3R,5S)-1-(5-Chloro-4-(((S)-2-cyclopropyl-3,3-difluoro-7-methyl-6-oxo-1,2,3,4,6,7-hexahydro-[1,4]oxazepino[2,3-c]quinolin-10-yl)amino)pyrimidin-2-yl)-5-methylpiperidin-3-yl)acetamide] | 3.4 nM and 4.4 nM and 3.2 nM | 2.8 | 138 | 72.4 | potently degrading isomer | 67 | 8.6565 | 1.7 nM and 2.8 nM | 2.2 | 61.63% | 8.4394 | 3.6 | 15 (≈ 8.82 µg/mL) | – | – | – | – |
| CC(=O)N[C@H]1C[C@@H](C)CN(c2ncc(Cl)c(Nc3ccc4c(c3)c3c(c(=O)n4C)OCC(F)(F)[C@H](C4CC4)N3)n2)C1 [10b, N-((3S,5R)-1-(5-Chloro-4-(((S)-2-cyclopropyl-3,3-difluoro-7-methyl-6-oxo-1,2,3,4,6,7-hexahydro-[1,4]oxazepino[2,3-c]quinolin-10-yl)amino)pyrimidin-2-yl)-5-methylpiperidin-3-yl)acetamide] | 3.5 nM and 2.6 nM and 2.5 nM | 2.8 | 134 | < 30 | nondegrading isomer | > 30 | – | > 2000 nM | > 2000 | – | 8.5388 | 2.9 | 15 (≈ 8.82 µg/mL) | < 30 | 3 nM | – | – |
| C[C@H]1C[C@@H](N(C)C)CN(c2ncc(Cl)c(Nc3ccc4c(c3)c3c(c(=O)n4C)OCC(F)(F)[C@H](C4CC4)N3)n2)C1 [11a, (S)-10-((5-Chloro-2-((3R,5S)-3-(dimethylamino)-5-methylpiperidin-1-yl)pyrimidin-4-yl)amino)-2-cyclopropyl-3,3-difluoro-7-methyl-1,2,3,4-tetrahydro-[1,4]oxazepino[2,3-c]quinolin-6(7H)-one] | 3.9 nM and 3 nM | 3.3 | 876 | 53.6 | potently degrading isomer | 56 | 8.0099 | 8.3 nM and 8.9 nM and 12.7 nM | 9.8 | 60.7% and 54.9% | 8.4757 | 3.3 | 60 (≈ 34.4 µg/mL) | – | 3.2 nM and 3.3 nM | – | – |
| C[C@@H]1C[C@H](N(C)C)CN(c2ncc(Cl)c(Nc3ccc4c(c3)c3c(c(=O)n4C)OCC(F)(F)[C@H](C4CC4)N3)n2)C1 [11b, (S)-10-((5-Chloro-2-((3S,5R)-3-(dimethylamino)-5-methylpiperidin-1-yl)pyrimidin-4-yl)amino)-2-cyclopropyl-3,3-difluoro-7-methyl-1,2,3,4-tetrahydro-[1,4]oxazepino[2,3-c]quinolin-6(7H)-one] | 3.3 nM and 3 nM and 4.8 nM | 3.3 | 681 | < 30 | nondegrading isomer | > 30 | – | > 2000 nM | > 2000 | – | 8.4399 | 3.6 | 58 (≈ 33.3 µg/mL) | < 30 | – | – | – |
| Cn1c(=O)c2c(c3cc(Nc4nc(N5CCC[C@@H](O)C5)ncc4Cl)ccc31)N[C@@H](C1CC1)C(F)(F)CO2 [14a, (S)-10-((5-chloro-2-((R)-3-hydroxypiperidin-1-yl)pyrimidin-4-yl)amino)-2-cyclopropyl-3,3-difluoro-7-methyl-1,2,3,4-tetrahydro-[1,4]oxazepino[2,3-c]quinolin-6(7H)-one] | 1.7 nM and 2.4 nM | – | 88 | 34.9 | – | 35 | – | > 2000 nM | > 2000 | – | – | 3 | 25 (≈ 13.3 µg/mL) | 34.9 | 3.1 nM | 2.46 | 2.7 |
| C[C@H]1CCCN(c2ncc(Cl)c(Nc3ccc4c(c3)c3c(c(=O)n4C)OCC(F)(F)[C@H](C4CC4)N3)n2)C1 [15a, (S)-10-((5-chloro-2-((S)-3-methylpiperidin-1-yl)pyrimidin-4-yl)amino)-2-cyclopropyl-3,3-difluoro-7-methyl-1,2,3,4-tetrahydro-[1,4]oxazepino[2,3-c]quinolin-6(7H)-one] | 48 nM and 29.5 nM and 34.4 nM | 4.9 | 568 | 88.4 | degraders of BCL6 | 86 | 8.1987 | 16 nM and 1.7 nM and 9.3 nM | 6.3 | 83.3% and 85.0% | 7.4377 | 36.5 | 0 | 85.5 | – | – | – |
| C[C@@H]1CCCN(c2ncc(Cl)c(Nc3ccc4c(c3)c3c(c(=O)n4C)OCC(F)(F)[C@H](C4CC4)N3)n2)C1 [15b, (S)-10-((5-Chloro-2-((R)-3-methylpiperidin-1-yl)pyrimidin-4-yl)amino)-2-cyclopropyl-3,3-difluoro-7-methyl-1,2,3,4-tetrahydro-[1,4]oxazepino[2,3-c]quinolin-6(7H)-one] | 27.6 nM and 22.6 nM | 5 | 204 | 73.4 | degraders of BCL6 | 72 | 7.4874 | 19.4 nM and 39.6 nM and 44.8 nM | 32.6 | 70.6% and 72.2% | 7.6089 | 24.6 | 0 | 72.1 | 23.8 nM | – | – |
